Reference: patent US5280027A, “Anti-tumor compounds” (Imperial Chemical Industries PLC, priority 1990, dated 1994)
Where two headings read alike, the source gives them in different places.

What was measured:
[1] = test system: human breast, ovarian and liver cancer; settings: clinical; cited from earlier work
[2] = cited from earlier work
thymidylate synthase = target: T1, thymidylate synthase (Mus musculus, UniProt P07607); experiment: Test (a): in vitro inhibition of the enzyme thymidylate synthase (partially purified from L1210 mouse leukaemia cells); type: biochemical
T1 construct: obtained in partially purified form from L1210 mouse leukaemia cells; endogenous in cells; host or cells: L1210 mouse leukaemia cells (enzyme partially purified)
From the text: (a) An in vitro assay which determines the ability of a test compound to inhibit the enzyme thymidylate synthase. Thymidylate synthase was obtained in partially purified form from L1210 mouse leukaemia cells and utilised using the procedures described by Jackman et al. (Cancer Res., 1986, 46, 2810 and Sikora et al., Biochem. Pharmacol. 1988, 37, 4047);

L1210 cell line = experiment: Test (b): inhibition of growth of the leukaemia cell line L1210 in cell culture; type: cell-based; settings: Mus musculus
From the text: (b) An assay which determines the ability of a test compound to inhibit the growth of the leukaemia cell line L1210 in cell culture. The test is similar to that described in UK Patent Specification No. 2065653B and has been described by Jones et al., J. Med. Chem., 1985, 28, 1468;

MCF-7 cell line = experiment: Test (c): inhibition of growth of the human breast cancer cell line MCF-7 in cell culture; type: cell-based; settings: MCF7, MCF-7 growth
From the text: (c) An assay which determines the ability of a test compound to inhibit the growth of the human breast cancer cell line MCF-7 in cell culture. The test is similar to that described by Lippman et al. (Cancer Res., 1976, 36, 4595); and […]

[3] = Test (a), thymidylate synthase, read-out: IC50

T1 sequence (P07607 whole entry): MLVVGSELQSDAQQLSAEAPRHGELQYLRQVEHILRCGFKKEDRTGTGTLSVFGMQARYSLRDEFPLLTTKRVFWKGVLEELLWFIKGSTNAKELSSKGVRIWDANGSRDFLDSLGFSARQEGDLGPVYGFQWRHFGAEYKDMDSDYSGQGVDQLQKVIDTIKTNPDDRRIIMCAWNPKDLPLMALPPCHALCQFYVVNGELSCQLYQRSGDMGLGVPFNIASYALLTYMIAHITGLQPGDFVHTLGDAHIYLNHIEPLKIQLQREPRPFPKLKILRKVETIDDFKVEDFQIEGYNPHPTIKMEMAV

| Structure (SMILES) | activity against human breast, ovarian and liver cancer [1] | toxicity in humans, particularly in relation to the liver and kidney [2] | IC50 (thymidylate synthase) [µM] | IC50 (L1210 cell line) [µM] | IC50 (MCF-7 cell line) [µM] | IC50 (thymidylate synthase; [3]) [µM] |
| --- | --- | --- | --- | --- | --- | --- |
| C#CCN(Cc1ccc2nc(N)[nH]c(=O)c2c1)c1ccc(C(=O)N[C@@H](CCC(=O)O)C(=O)O)cc1 [CB3717] | promising activity | symptoms of toxicity in humans, particularly in relation to the liver and kidney |  |  |  |  |
| C#CCN(Cc1ccc2nc(C)[nH]c(=O)c2c1)c1ccc(C(=O)NC(C(=O)NS(=O)(=O)c2ccc(OC)cc2)c2cccc([N+](=O)[O-])c2)cc1 (centres unmarked) [Example 10, N-[p-[N-(2-methyl-4-oxo-3,4-dihydroquinazolin-6-ylmethyl)-N-(prop-2-ynyl)amino]benzoyl]-(3-nitrophenyl)glycine N-(4-methoxyphenylsulphonyl)amide] |  |  | ~0.01 | ~25 | ~1 |  |
| C#CCN(Cc1ccc2nc(C)[nH]c(=O)c2c1)c1ccc(C(=O)NC(c2ccccc2)c2ccccc2)cc1 [Example 7, N-diphenylmethyl-p-[N-(2-methyl-4-oxo-3,4-dihydroquinazolin-6-ylmethyl)-N-(prop-2-ynyl)amino]benzamide] |  |  |  | ~7 | ~1.5 | ~2 |
| C#CCN(Cc1cc2c(=O)[nH]c(C)nc2cc1C)c1ccc(C(=O)NC(CO)c2cccc([N+](=O)[O-])c2)cc1 (centres unmarked) [Example 14, compound no. 2, p-[N-(2,7-dimethyl-4-oxo-3,4-dihydroquinazolin-6-ylmethyl)-N-(prop-2-ynyl)amino]-N-[2-hydroxy-1-(3-nitrophenyl)ethyl]benzamide] |  |  |  | ~3.4 | ~0.1 | ~0.02 |
